This note sets out measurements from EP0210227B1, “PYRIMIDINE SULFATES FOR HAIR GROWTH” (THE UPJOHN COMPANY, priority 1985, dated 1986).

Structures are written as SMILES. Where a name gives a salt, the structure may show the parent alone.

Assay type in all cases: in vivo
Experiment [1] concerns hair-deficient mice called "nude" (nu/nu). The experiment is described as follows: Hair growth in nude mice, oral drug daily without resting on weekends (Example 2). The note with it: for Score of Photos 1+ (Number of animals with at least 1 of 5 photos showing positive hair growth) / Score of Photos 2+ (Number of animals with at least 2 of 5 photos showing positive hair growth): Example 2, daily, eleven week old mice; for inducing hair growth, compared with minoxidil: summary of Table I in words. An excerpt: (§1) The present invention is illustrated by the Examples, below. Examples 1-3 illustrate the effect of minoxidil sulfate (a compound of the present invention) and minoxidil (the corresponding N-oxide) in genetically identical hair-deficient mice called "nude" (nu/nu) (see Flanagen, Genet. Res. 8:295-309 (1966)). […] All mice in the species mus grow hair in a definite, 20 day cycle, going from head to tail (see Barom, Acta Path. Micro. Scan. 34: 521-541 (1954)). "Nude" mice have the same pattern (see Eton, Transplantation 22: 217-222 (1976)). Hair fails to appear in the nude mouce since it never emerges due to the fact that the hair shaft is incompletely formed, poorly keratinized, or both. The nacent hair shafts fragment within the follicle and thus never emerge or break near the skin surface. The hair produced in the nude mice treated with the compounds described below is more normal and mechanically competent to emerge and persit. Eventually, however, even the hair produced in the drug treated animals falls out due to the genetic defect of these animals. Nonetheless, significant differences in hair growth can be observed in the drug treated animals as compared to the control animals during the twenty day cycle.
(§2) In the Examples, five photographs were taken of the animals every six days over a four week period.
Eleven week old mice from the same group fo animals as used in Example 1 were treated by oral administration of 0.25 ml of either minoxidil or minoxidil sulfate in water daily without resting on weekends. Weights were assumed to be an average of 25 g per animal for dosing purposes.

Experiment [2] has as its system Balb/c nu/nu male mice. The experiment is described as follows: Hair growth in nude mice, daily oral or topical drug (Example 3). Particulars: six week old mice.
Source text: as §1, §2
Six week old Balb/c nu/nu male mice were given daily oral drug (without resting on weekends) in 0.25 ml water. Topical minoxidil sulfate was applied in 0.25 ml of a propylene glycol, ethanol, and watervehicle.

Experiment [3] deals with stumptail Macque monkeys. The experiment in a line: Hair growth rate on the scalp of balding monkeys, topical solution (Example 4). Particulars: for Mean wt. (clipped hair, 2.54 cm square area of treated scalp): topical daily, 250 microliters of 750 mg in 50 ml acetone:N-methylpyrrolidone 94:6. As for the experimental part:
Topical minoxidil sulfate solution was applied to a group of 6 stumptail Macque monkeys daily, 7 days/ week. The topical minoxidil sulfate solution was prepared by dissolving 750 mg of minoxidil sulfate in 50 ml of a 94:6 volume:volume solution of acetone: N-methylpyrrolidone. A second group of 6 animals served as controls and received vehicle only. the volume per application was 250 microliters applied to the frontal scalp with an art brush. Hair growth rate within a 2.54 cm (1 inch) square area of treated scalp was assessed by quantitatively clipping the hair at successive intervals of 42 days, 21 days and 21 days and weighing the residue.

[4] abbreviates: 20 mg/kg topical in propylene glycol, ethanol and water vehicle.
Where [5] appears, read: 40 mg/kg topical in propylene glycol, ethanol and water vehicle.

With `Nc1cc(N2CCCCC2)nc(N)[n+]1OS(=O)(=O)[O-]` [Minoxidil Sulfate, 2,6-Diamino-4-(1-piperidinyl)-1-(sulfoxy)-pyrimidinium hydroxide, inner salt], the “Score of Photos 1+ (Number of animals with at least 1 of 5 photos showing positive hair growth)” value is 4/5 in experiment [1] (20 mg/kg oral); 3/5 in experiment [1] (40 mg/kg oral); 2/5 in experiment [2] (5 mg/kg oral, daily); 1/5 in experiment [2] (10 mg/kg oral, daily); 2/5 in experiment [2] (20 mg/kg oral, daily); 2/5 in experiment [2] (setting [4]). The “Score of Photos 1+ (Number of animals with at least 1 of 5 photos showing positive hair growth)” value in experiment [2] (40 mg/kg oral, daily) is listed as 3/5; in experiment [2] (setting [5]), 2/5. The “Score of Photos 2+ (Number of animals with at least 2 of 5 photos showing positive hair growth)” value in experiment [1] (20 mg/kg oral) is on record as 3/5; in experiment [1] (40 mg/kg oral) it was 1/5; in experiment [2] (5 mg/kg oral, daily), 1/5; in experiment [2] (10 mg/kg oral, daily), 1/5; in experiment [2] (20 mg/kg oral, daily), 1/5; in experiment [2] (setting [4]) it was 0/5. Besides, the “Score of Photos 2+ (Number of animals with at least 2 of 5 photos showing positive hair growth)” value in experiment [2] (40 mg/kg oral, daily) is listed as 0/5; in experiment [2] (setting [5]) it was 1/5. Also, the “inducing hair growth, compared with minoxidil” value is listed as “significantly better than minoxidil” in experiment [1] (at 20 mg/kg) and “equipotent to or better than minoxidil” in experiment [1] (at 40 mg/kg). Besides, the “Mean wt. (clipped hair, 2.54 cm square area of treated scalp)” value in experiment [3] (Collection 1 (interval of 42 days)) stood at 76 ±20 uG/day; in experiment [3] (Collection 2 (next interval of 21 days)), 313 ±67 uG/day; in experiment [3] (Collection 3 (last interval of 21 days)), 343 ±52 uG/day. In addition, in experiment [3] (balding monkeys, summary of Table II in words), the “hair growth following topical application to the scalp” value was “stimulates hair growth”. Further, in experiment [3] (by the third collection, summary of Table II in words), the “increase in hair growth versus vehicle” value is on record as “statistically significant increase in hair growth”.
